Values joined by “and” are separate entries in the source; they are usually repeats but may differ in a detail not shown here. Equal entries are not always repeated. Toxic doses and inconclusive results are not listed.
Test system: P388 leukemia ip, CD2F1 mice, survival T/C
Assay: NCI In Vivo Anticancer Drug Screen. Data for tumor model P388 Leukemia (intraperitoneal) in CD2F1 (CDF1) mice
Details: endpoint: median survival time, higher = longer survival
Procedure, shortened: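 Mice carrying the transplanted tumor received test compound or vehicle. Survival was recorded in each group, and the value is the treated-group measurement divided by that of the vehicle-treated control group.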

[1] = dose: 50.0 mg/kg/injection, schedule: Q01DX005 (ip), vehicle: Klucel (hydroxypropylcellulose) (HPC)
[2] = dose: 100.0 mg/kg/injection, schedule: Q01DX005 (ip), vehicle: Klucel (hydroxypropylcellulose) (HPC)
[3] = dose: 200.0 mg/kg/injection, schedule: Q01DX005 (ip), vehicle: Klucel (hydroxypropylcellulose) (HPC)

In the case of `O=C(NO)C1CCCCC12OCCO2` (configuration not stated), the T/C (dose: 100.0 mg/kg/injection, schedule: Q04DX002 (ip), vehicle: saline) is reported as 98 % of control, the T/C (dose: 200.0 mg/kg/injection, schedule: Q04DX002 (ip), vehicle: saline) is reported as 101 % of control and the T/C (dose: 400.0 mg/kg/injection, schedule: Q04DX002 (ip), vehicle: saline) is reported as 101 % of control.
With `CC(=O)/C=C1/N(C)c2ccccc2C1(C)C` the T/C [1] was 100 % of control, the T/C [2] was 100 % of control and the T/C [3] was 99 % of control.
In the case of `COC1OCC(NC(=O)c2ccccc2)C(OS(C)(=O)=O)C1OS(C)(=O)=O` (configuration not stated), the T/C (dose: 12.5 mg/kg/injection, schedule: Q01DX009 (ip), vehicle: other) is reported as 97 % of control, the T/C (dose: 25.0 mg/kg/injection, schedule: Q01DX009 (ip), vehicle: other) is reported as 87 % of control and the T/C (dose: 50.0 mg/kg/injection, schedule: Q01DX009 (ip), vehicle: other) is reported as 106 % of control. The T/C (dose: 100.0 mg/kg/injection, schedule: Q01DX009 (ip), vehicle: other) was 95 % of control and the T/C (dose: 200.0 mg/kg/injection, schedule: Q01DX009 (ip), vehicle: other) was 88 % of control.
With `CC(=O)CSC1=CC(C)(C)CC1=O` the T/C [1] was 96 % of control, the T/C [2] was 99 % of control and the T/C [3] was 99 % of control.
In the case of `COC(=O)c1nc(=S)[nH]c(C(=O)OC)c1C(=O)c1cccc(O)c1`, the T/C (dose: 60.0 mg/kg/injection, schedule: Q01DX005 (ip), vehicle: suspension in saline) is reported as 95 % of control and the T/C (dose: 120.0 mg/kg/injection, schedule: Q01DX005 (ip), vehicle: suspension in saline) is reported as 90 % of control.
In the case of `CO/C=C1\CC(=O)N(C)C1=O`, the T/C (dose: 100.0 mg/kg/injection, schedule: Q04DX003 (ip), vehicle: saline with Tween-80) is reported as 110 % of control, the T/C (dose: 200.0 mg/kg/injection, schedule: Q04DX003 (ip), vehicle: saline with Tween-80) is reported as 97 % of control and the T/C (dose: 400.0 mg/kg/injection, schedule: Q04DX003 (ip), vehicle: saline with Tween-80) is reported as 97 % of control.
`CS(=N)(=O)CCC(N)P(=O)(O)O` (configuration not stated) was tested, and the T/C (dose: 50.0 mg/kg/injection, schedule: Q01DX005 (ip), vehicle: saline) was 95 % of control, the T/C (dose: 100.0 mg/kg/injection, schedule: Q01DX005 (ip), vehicle: saline) was 92 % of control and the T/C (dose: 200.0 mg/kg/injection, schedule: Q01DX005 (ip), vehicle: saline) was 100 % of control.
With `COC(=O)NC1C(C)OC(OC2C/C=C(/C)C3C=CC4C(OC5CC(OC6CC(O)C(OC7CC(O)C(OC)C(C)O7)C(C)O6)C(O)C(C)O5)C(C)CC(C)C4C3(C)/C(O)=C3\C(=O)OC4(CC(C)C(CO)=CC4/C=C\2C)C3=O)CC1(C)[N+](=O)[O-]` (configuration not stated) the T/C [1] was 118 % of control and 123 % of control.
`[Cl][Sn]([c]1ccccc1)[c]1ccccc1` was tested, and the T/C (dose: 1.8 mg/kg/injection, schedule: Q03HX015 (ip), vehicle: saline) was 150 % of control, the T/C (dose: 2.7 mg/kg/injection, schedule: Q03HX015 (ip), vehicle: saline) was 152 % of control and the T/C (dose: 3.12 mg/kg/injection, schedule: Q01DX009 (ip), vehicle: saline) was 86 % of control. For the same compound, the T/C (dose: 4.0 mg/kg/injection, schedule: Q03HX015 (ip), vehicle: saline) was 163 % of control, the T/C (dose: 5.3 mg/kg/injection, schedule: Q01DX005 (ip), vehicle: saline) was 154 % of control and the T/C (dose: 12.0 mg/kg/injection, schedule: Q01DX005 (ip), vehicle: saline) was 163 % of control. For the same compound, the T/C (dose: 12.5 mg/kg/injection, schedule: Q01DX009 (ip), vehicle: saline) was 163 % of control, the T/C (dose: 12.5 mg/kg/injection, schedule: Q04DX003 (ip), vehicle: saline) was 114 % of control and the T/C (dose: 25.0 mg/kg/injection, schedule: Q01DX009 (ip), vehicle: saline) was 198 % of control. For the same compound, the T/C (dose: 100.0 mg/kg/injection, schedule: Q04DX003 (ip), vehicle: saline) was 154 % of control.
In the case of `Cc1cc(C)nc(NCCCCCCCCNc2nc(C)cc(C)n2)n1`, the T/C [1] is reported as 91 % of control, the T/C [2] is reported as 96 % of control and the T/C [3] is reported as 90 % of control.
With `Cc1c2c(cc3c1[nH]c1ccccc13)C(=O)c1ccccc1C2=O` the T/C (dose: 12.5 mg/kg/injection, schedule: Q01DX005 (ip), vehicle: saline with Tween-80) was 94 % of control, the T/C (dose: 25.0 mg/kg/injection, schedule: Q01DX005 (ip), vehicle: saline with Tween-80) was 95 % of control and the T/C (dose: 50.0 mg/kg/injection, schedule: Q01DX005 (ip), vehicle: saline with Tween-80) was 92 % of control and 94 % of control. The T/C (dose: 200.0 mg/kg/injection, schedule: Q01DX005 (ip), vehicle: saline with Tween-80) was 87 % of control.
For `CC1CC2OC(=O)CC2C(O)C2(C)C(OC(C)(C)C)CCC12` (configuration not stated), the T/C [1] was 100 % of control and the T/C [2] was 90 % of control.

— PubChem BioAssay AID330 (DTP/NCI, 2004)
